Patent US10196606B2, “Method of producing multipotent stem cells” (FLINDERS UNIVERSITY OF SOUTH AUSTRALIA, priority 2011, dated 2019)

Experiments:
[1] = molecular target: ALK1 (Homo sapiens, UniProt P37023); conditions: cited from earlier work
[2] = molecular target: ALK3 (Homo sapiens, UniProt P36894); conditions: cited from earlier work
[3] = molecular target: T1, ALK4 (Homo sapiens, UniProt P36896); conditions: cited from earlier work
T1 sequence (P36896 24-505): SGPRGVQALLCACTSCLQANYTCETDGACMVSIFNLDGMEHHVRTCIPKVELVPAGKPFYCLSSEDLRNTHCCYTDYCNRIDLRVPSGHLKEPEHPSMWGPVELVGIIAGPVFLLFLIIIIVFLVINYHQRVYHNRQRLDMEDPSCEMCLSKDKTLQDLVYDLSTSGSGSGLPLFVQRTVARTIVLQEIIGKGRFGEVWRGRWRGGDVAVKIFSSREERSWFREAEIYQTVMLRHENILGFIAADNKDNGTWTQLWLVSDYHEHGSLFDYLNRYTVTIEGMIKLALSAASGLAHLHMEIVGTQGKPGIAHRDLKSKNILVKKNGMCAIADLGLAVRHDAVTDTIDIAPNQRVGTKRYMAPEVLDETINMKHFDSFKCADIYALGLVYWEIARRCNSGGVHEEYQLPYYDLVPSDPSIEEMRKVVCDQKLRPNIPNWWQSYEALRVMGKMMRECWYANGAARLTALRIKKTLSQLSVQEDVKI

[4] = molecular target: ALK6 (Homo sapiens, UniProt O00238); conditions: cited from earlier work
ALK6, sequence (O00238 14-502): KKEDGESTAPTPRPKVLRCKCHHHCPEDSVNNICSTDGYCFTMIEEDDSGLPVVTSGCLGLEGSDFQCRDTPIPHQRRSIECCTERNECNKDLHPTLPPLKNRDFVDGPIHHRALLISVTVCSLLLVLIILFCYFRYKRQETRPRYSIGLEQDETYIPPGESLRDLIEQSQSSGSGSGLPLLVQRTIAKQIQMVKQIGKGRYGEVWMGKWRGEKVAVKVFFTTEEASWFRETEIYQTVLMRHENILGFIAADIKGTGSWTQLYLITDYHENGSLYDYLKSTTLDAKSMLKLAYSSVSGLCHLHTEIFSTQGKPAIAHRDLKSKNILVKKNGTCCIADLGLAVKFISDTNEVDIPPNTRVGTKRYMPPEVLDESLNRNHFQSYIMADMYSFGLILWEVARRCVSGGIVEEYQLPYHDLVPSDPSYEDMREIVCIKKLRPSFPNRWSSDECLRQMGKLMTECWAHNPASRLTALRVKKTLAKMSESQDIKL

[5] = molecular target: T2, ALK2 (Homo sapiens, UniProt Q04771); conditions: cited from earlier work
T2 sequence (Q04771 21-509): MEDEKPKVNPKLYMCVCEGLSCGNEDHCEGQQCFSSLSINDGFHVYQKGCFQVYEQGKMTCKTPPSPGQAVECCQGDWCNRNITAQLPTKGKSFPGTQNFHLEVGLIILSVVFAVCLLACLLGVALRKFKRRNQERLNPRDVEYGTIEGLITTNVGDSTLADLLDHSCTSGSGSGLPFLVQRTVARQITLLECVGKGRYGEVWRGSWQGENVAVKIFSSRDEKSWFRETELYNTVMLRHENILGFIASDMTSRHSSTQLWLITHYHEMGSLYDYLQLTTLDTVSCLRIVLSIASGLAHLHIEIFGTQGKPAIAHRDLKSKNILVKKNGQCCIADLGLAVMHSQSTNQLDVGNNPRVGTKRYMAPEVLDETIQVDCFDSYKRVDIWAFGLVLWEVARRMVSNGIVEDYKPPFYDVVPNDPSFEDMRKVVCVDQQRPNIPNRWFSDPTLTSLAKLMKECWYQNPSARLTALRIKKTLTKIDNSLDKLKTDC

[6] = tested on: mouse adult tail-tip fibroblasts (TTF); assay: Induction of SMINS cells / ALP-positive neurospheres from TTF; type: cell-based
Procedure: (§1) Mouse embryonic fibroblasts (MEF) and mouse adult tail-tip fibroblasts (TTF) were isolated from C57/BL6 mice as described previously^2. Both cell types (ie MEF and TTF) were cultured in MEF medium (Dulbecco's Modified Eagle Medium (DMEM; Invitrogen Corporation, Carlsbad, Calif., United States of America) containing 10% Fetal Bovine Serum (FBS; Thermo Fisher Scientific, Waltham, Mass., United. States of America), 50 units/ml penicillin and 50 μg/ml streptomycin (Invitrogen)). Native NS cells were cultured from mouse brain at E12-E14 as positive controls in neural stem (NS) cell media.
(§2) 35 mm tissue culture dishes were coated with feeder cells (fibroblasts cultured from mouse embryo and seeded at 1.4×10^5 cells per 35 mm tissue culture dish) before induction. The MEF (passage 3) or TTF were seeded at 1.4×10^5 per 35 mm feeder cell-coated dish. The cells were induced in 6 cycles. […] The cells were then cultured in SCM in the absence of the small molecules for the next two days. Then, the cycle was repeated 5 times. Next, the cells were passaged and suspended in a drop of […] containing at least 50 cells for two days. Finally, the cells were cultured in the neural stem (NS) cell medium (DMEM/F12 (Invitrogen) supplemented with B-27 (1:50; Gibco Inc, Billings, Mont., United States of America), 50 units ml^−1 penicillin, 50 μg ml^−1 streptomycin, 8 mM HEPES buffer, 20 ng ml^−1 epidermal growth factor (EGF), 10 ng ml^−1 basic fibroblast growth factor (bFGF) for two weeks.
(§3) ES culture medium (also referred to as SCM herein) was added to NS and SMINS cells overnight. Alkaline phosphatase staining was carried out according to the manufacturer's protocol (Hoffman-La Roche, Basel, Switzerland). For the immunofluorescence staining, cells were washed with phosphate buffered saline (PBS) and then fixed with 4% paraformaldehyde for 10 min. After washing twice with PBS, the cells were permeabilised with 0.1% Triton X-100 for 20 min. Cells were then washed twice and blocked in blocking buffer (a solution of PBS containing 1% FBS and 4% bovine serum albumin (BSA)) for 1 hour. […]

[7] = tested on: human umbilical cord fibroblast (HUCF) cells; assay: Immunocytochemistry of cells induced from HUCF; type: cell-based
Procedure: Cells were induced with small molecules (BIX0124 alone or BIX0125 and RG108 in combination) as described above, with cells cultured in HIPS media at Days 2 and 3. Cells were cultured in NSC media for 0, 2 or 6 days as detailed below. Prior to immunofluorescence staining, cells were dissociated with Tryple-E enzyme as described above, and then incubated overnight at low density on poly-D-lysine coated coverslips in HIPS media prior to immunofluorescence staining.
Cells were then washed with PBS and then fixed with 4% paraformaldehyde for 10 min. After washing twice with PBS, cells were permeabilised with 0.1% Triton X-100 for 20 min. Cells were then washed twice and blocked in blocking buffer (a solution of PBS containing 1% FBS and 4% BSA) for 1 hour. Primary antibodies were diluted in blocking buffer in the following dilutions: anti-Sox2 (Millipore, 1:200, mouse), anti-SSEA-1 (Santa Cruz Biotechnology, 1:200, mouse), anti-glial fibrillary acidic protein (GFAP; Dako, 1:400, rabbit), anti-Map2 (Osenses, 1:1000, rabbit), anti-Olig2 (Osenses, 1:1000, rabbit), anti-Alpha-tubulin (Sigma, 1:1000, mouse), anti-neural/glial 2 (Abeam, 1:200), anti-nestin (DHSB, 1:1000), anti-Tuj1 Sigma, 1:300 and applied to the cells for 1 hour at room temperature or overnight at 4° C. Cells were washed three times with PBS and then secondary fluorescent antibodies (1:1000, Cy3 or Alexa-488) and counterstain with 10 μg/ml DAPI were applied for 1 hour at room temperature.
In one experiment, HUCF cells were induced as follows: At passage 17, HUCF cells were negatively selected for p75-NTR and then induced using BIX01294 alone in HIPS media for one day and HIPS media (no small molecules) for two days followed by culture in NSC media for 6 days. Meanwhile control HUCF cells at passage 17 were negatively selected for p75-NTR cells, and then passaged another 5 times. Cells were then stained with mouse anti-p75-NTR-FITC (Biosensis, 1:6, mouse) and counterstained with DAPI as described above.

[8] = tested on: human umbilical cord fibroblast (HUCF) cells; assay: RT-PCR of cells induced from HUCF; type: cell-based; conditions: immediately after induction, prior to culture in NSC media
Procedure: mRNA was extracted from cells induced using BIX01294 and RG108 in combination or BIX01294 alone. A cell lysate from SKSY5Y cells (a neuroblastoma cell line) was used as a positive control, and HUCF cells at passage 17 following p75-NTR negative selection was used as a negative control. RT-PCR was performed as described in Example 1 for expression of typical neural stem cell genes GFAP, Sox2, Olig2, Nestin, and pluripotent stem cell genes Oct4 and Nanog, and loading control gene GAPDH using the primers described in Example 1.

[9] = tested on: mouse embryonic fibroblasts (MEF); assay: Induction of SMINS cells / ALP-positive neurospheres from MEF, 6 induction cycles; type: cell-based; conditions: withdrawal of individual small molecules from the combination
Procedure: as §1, §2, §3

[10] = tested on: human umbilical cord fibroblast (HUCF) cells; assay: Induction of ALP positive colonies from HUCF, single induction cycle; type: cell-based; conditions: one induction cycle, 7 days in NSC media
Procedure: At passage 17, HUCF cells were labelled with an anti-p75NTR antibody and underwent cell sorting for p75-NTR expression as described below, p75NTR-negative cells were used for all experiments of the induction by small molecules described below. Two hours before induction, p75-NTR^− HUCF were seeded at 1.4×10^5 per 35 mm tissue culture dishes coated with poly-D-lysine. On Day 1, the cells were induced in human induced pluripotent stem cell culture medium (HIPS) (DMEM/F12 supplemented with 25% KSR (Invitrogen), 1% non-essential amino acids (Invitrogen), 1% L-glutamine (Invitrogen), 50 units ml-1 penicillin, 50 μg ml-1 streptomycin, 10 ng ml-1 bFGF, and 0.1 mM β-mercaptoethanol (Invitrogen)) containing various combinations of small molecules as described below. The small molecules were used at the following concentrations: 0.5 μM PD0325901, 0.5 μM PD184352 (Millipore Merck), 72 nM U0216 (Millipore Merck), 0.4 μM RG108. […] 5-aza-2′-deoxycytidine (Millipore Merck) and 1 μM BIX01294. On day 2, the media was replaced with stem cell media (SCM) in the absence of small molecules as described in Example 1, except where indicated, the media was HIPS media in the absence of small molecules. On day 4, the cells were dissociated using 1 ml (1×) Tryple-E enzyme (Invitrogen) and seeded on 35 mm Petri dish with Neural Stem Cell (NSC) media (Neurobasal Medium (Invitrogen) supplemented with 10 ng/m bFGF and EGF with 50 units/ml penicillin, 50 μg/ml streptomycin). Colonies were maintained in NSC media for 7 days to induce neural stem cells unless stated otherwise.
Cells were induced with a combination of small molecules as described above and stained with ALP as described in Example 1, and examined using phase contrast microscopy.

[11] = tested on: cell reprogramming; conditions: cited from earlier work

ALK1, sequence (P37023 22-503, species assumed): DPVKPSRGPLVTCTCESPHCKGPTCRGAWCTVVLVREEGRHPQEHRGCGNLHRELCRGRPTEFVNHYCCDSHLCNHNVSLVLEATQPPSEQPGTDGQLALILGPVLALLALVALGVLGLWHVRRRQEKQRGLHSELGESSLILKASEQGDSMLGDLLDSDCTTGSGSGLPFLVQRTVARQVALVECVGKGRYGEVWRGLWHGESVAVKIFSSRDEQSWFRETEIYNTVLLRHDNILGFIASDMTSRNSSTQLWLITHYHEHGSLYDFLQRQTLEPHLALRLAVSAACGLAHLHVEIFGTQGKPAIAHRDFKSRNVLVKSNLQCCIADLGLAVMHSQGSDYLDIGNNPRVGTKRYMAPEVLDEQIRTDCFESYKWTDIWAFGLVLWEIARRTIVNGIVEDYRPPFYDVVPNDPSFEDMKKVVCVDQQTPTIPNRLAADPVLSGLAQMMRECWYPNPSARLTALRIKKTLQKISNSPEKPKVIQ
ALK3, sequence (P36894 24-532): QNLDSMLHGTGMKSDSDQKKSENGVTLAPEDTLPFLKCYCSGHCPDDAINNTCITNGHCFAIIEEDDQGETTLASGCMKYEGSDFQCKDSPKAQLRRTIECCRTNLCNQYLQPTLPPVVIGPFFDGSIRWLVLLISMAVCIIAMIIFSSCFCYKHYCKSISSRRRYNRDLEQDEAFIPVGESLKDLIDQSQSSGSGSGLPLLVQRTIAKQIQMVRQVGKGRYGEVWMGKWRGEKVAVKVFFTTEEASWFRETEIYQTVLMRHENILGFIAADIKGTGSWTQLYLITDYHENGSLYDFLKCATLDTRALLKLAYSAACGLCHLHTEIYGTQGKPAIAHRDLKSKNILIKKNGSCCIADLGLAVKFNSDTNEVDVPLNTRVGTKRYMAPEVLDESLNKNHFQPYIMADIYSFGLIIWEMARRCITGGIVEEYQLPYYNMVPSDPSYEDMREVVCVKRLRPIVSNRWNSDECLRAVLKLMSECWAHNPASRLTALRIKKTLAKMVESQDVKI

Cc1cccc(-c2nn(C(=S)Nc3ccccc3)cc2-c2ccnc3ccccc23)n1 [A83-01, 3-(6-Methyl-2-pyridinyl)-N-phenyl-4-(4-quinolinyl)-1H-pyrazole-1-carbothioamide]
inhibition of ALK1 [1]: only weakly inhibits
inhibition of ALK3 [2]: only weakly inhibits
IC50 [3]: 12 nM
inhibition of ALK6 [4]: only weakly inhibits
inhibition of ALK2 [5]: only weakly inhibits

COc1cc2nc(N3CCCN(C)CC3)nc(NC3CCN(Cc4ccccc4)CC3)c2cc1OC.Cl.Cl.Cl.O [BIX01294, 2-(hexahydro-4-methyl-1H-1,4-diazepin-1-yl)-6,7-dimethoxy-N-[1-(phenylmethyl)-4-piperidinyl]-4-quinazolinamine trihydrochloride hydrate]
ALP-positive neurosphere produced from TTF [6]: No
expression of neural stem cell marker nestin ([7]; 6 days in NSC media): additionally express the neural stem cell marker nestin
p75-NTR staining versus control p75-NTR negative HUCF ([7]; 6 days in NSC media): marked upregulation
expression of NG2, Olig2, GFAP and Tuj1 ([7]; after culture in NSC media): some BIX01294 induced cells express
expression of Sox2 and SSEA-1 (immunofluorescence) ([7]; culture in NSC media for 0 or 6 days): clearly expressed Sox2 and SSEA-1
Sox2 expression (RT-PCR) [8]: expressed Sox2 immediately after induction
essential for generation of SMINS-MEF cells [9]: required for the induction

O=C(NOCC1CC1)c1ccc(F)c(F)c1Nc1ccc(I)cc1Cl [PD184352, 2-(2-chloro-4-iodo-phenylamino)-N-cyclopropylmethoxy-3,4-difluoro-benzamide]
induction of ALP positive colonies from HUCF [10]: induced ALP positive colonies

O=C(NOCC(O)CO)c1ccc(F)c(F)c1Nc1ccc(I)cc1F (centres unmarked) [PD325901, N-(2,3-dihydroxy-propoxy)-3,4-difluoro-2-(2-fluoro-4-iodo-phenylamino)-benzamide]
induction of ALP positive colonies from HUCF [10]: induced ALP positive colonies
ALP-positive neurosphere produced from TTF [6]: Yes
essential for generation of SMINS-MEF cells [9]: required for the induction

O=C(O)[C@H](Cc1c[nH]c2ccccc12)N1C(=O)c2ccccc2C1=O [RG108, 1H-Indole-3-propanoic acid, α-(1,3-dihydro-1,3-dioxo-2H-isoindol-2-yl)-, (αS)—]
ALP-positive neurosphere produced from TTF [6]: No
essential for generation of SMINS-MEF cells [9]: required for the induction

N#CC(=C(/N)Sc1ccccc1N)/C(C#N)=C(/N)Sc1ccccc1N [U0216]
induction of ALP positive colonies from HUCF [10]: induced ALP positive colonies

CCCC(CCC)C(=O)O [valproic acid]
improvement of the efficiency of cell reprogramming by some induction processes [11]: at least 100 fold
